{"source": "patent US20220143183A1", "about": "“PHOTOSWITCHABLE PROTACS AND SYNTHESIS AND USES THEREOF” (New York University, priority 2019, published 2022)", "key": {"BRD2-4": {"system": "BRD2-4", "experiment": "Western blot of BET proteins in RS4;11 cells, results stated for BRD2-4 together", "assay_type": "cell-based, human", "procedure": "(§1) Next, the light dependence of targeted protein degradation was analyzed in RS4;11 cells by western blot analysis of the BET proteins BRD2-4 (FIG. 5). To this end, cells were treated with increasing concentrations of our lead compound, PHOTAC-I-3, for 4 h and pulse-irradiated with 390 nm light (100 ms every 10 s). […] The cereblon-dependent degradation was confirmed by a competition experiment (FIG. 5E), and further validated by siRNA knockdown of cereblon (FIG. 13).\n(§2) The slight effect on c-MYC can be explained by inhibition of BRD4 with the (+)-JQ1 derivative PHOTAC-I-3 in the absence of targeted degradation.\n(§3) Cells were incubated with different concentrations of selected compounds. They were placed in a light-proof box and preirradiated for 1 min at 390 nm followed by 100 ms pulses every 10 s or were kept in the dark for 4 h.\nCultured cells were collected by centrifugation and washed twice with cold PBS. The supernatant was removed and each cell pellet was lysed in 100 μL NP40-Cell-Lysis Buffer+0.1% SDS+1 mM PMSF+ protease inhibitor cocktail (Sigma Aldrich) for 30 min on ice, with vortexing at 10-minute intervals. Afterwards, cells were centrifuged at 13.000 rpm for 10 min at 4° C. Samples were stored on ice and the supernatant was collected for protein concentration determination using a Thermofisher Scientific Pierce™ Coomassie Plus (Bradford) Assay Kit. […]"}, "c-MYC": {"system": "c-MYC", "experiment": "Immunoblot of c-MYC levels in RS4;11 cells", "assay_type": "cell-based, human", "procedure": "(§4) Photoactivatable degraders and inhibitors of BRD4, c-MYC levels were also affected.\nas §2\nWestern Immunoblot Analysis. Rabbit monoclonal Antibodies for BRD4 (#13440), β-Actin (#4970) c-Myc (#5605) and Anti-rabbit IgG, HRP-linked Antibody (#7074) were purchased from Cell Signalling Technologies.\nas §3\n(§5) Cultured cells were collected by centrifugation and washed twice with cold PBS. The supernatant was removed and each cell pellet was lysed in 100 μL NP40-Cell-Lysis Buffer+0.1% SDS+1 mM PMSF+ protease inhibitor cocktail (Sigma Aldrich) for 30 min on ice, with vortexing at 10-minute intervals. Afterwards, cells were centrifuged at 13.000 rpm for 10 min at 4° C. Samples were stored on ice and the supernatant was collected for protein concentration determination using a Thermofisher Scientific Pierce™ Coomassie Plus (Bradford) Assay Kit.\n(§6) The samples were diluted each with 5 μL Laemmli sample buffer Invitrogen (NuPAGE LDS Sample Buffer 4×) and 1 μL DTT, heated at 95° C. for 5 min. […]"}, "[1]": {"experiment": "UV-Vis photoswitching and photostationary states (PSS)", "assay_type": "physicochemical", "excerpt": "The photoswitching and thermal relaxation properties of one of the lead compounds, PHOTAC-I-3, is shown in FIG. 3A-E. The optimal wavelength to switch to the cis isomer is 390 nm but similar photostationary states (PSS) can be obtained between 380 and 400 nm (FIG. 3C). At 390 nm a PSS of >90% cis could be obtained. Rapid cis to trans isomerization could be achieved by irradiation with wavelengths >450 nm, achieving PSS of ca >70% trans (FIG. 3C). […] Multiple cycles of photochemical isomerization are possible, in keeping with the fatigue-resistance of azobenzene photoswitches (FIG. 3E).\nUV-Vis spectrometry was performed on a Varian Cary 60 UV-Visible Spectrophotometer using disposable BRAND UV-Cuvette Disposable Spectrophotometer/Photometer Ultra-Micro Cuvettes, BrandTech (10 mm light path), an Agilent Technologies PCB 1500 Water Peltier system for temperature control and samples were irradiated with a cairn research Optoscan Monochromator with Optosource High Intensity Arc Lamp equipped with a 75 W UXL-S50A lamp from USHIO Inc. Japan and set to 15 nm full width at half maximum."}, "BRD3": {"molecular_target": "T1, BRD3 (Homo sapiens, UniProt Q15059)", "T1 construct": "endogenous in cells; host or cells: RS4;11 (ATCC CRL-1873)", "T1 sequence (Q15059 whole entry)": "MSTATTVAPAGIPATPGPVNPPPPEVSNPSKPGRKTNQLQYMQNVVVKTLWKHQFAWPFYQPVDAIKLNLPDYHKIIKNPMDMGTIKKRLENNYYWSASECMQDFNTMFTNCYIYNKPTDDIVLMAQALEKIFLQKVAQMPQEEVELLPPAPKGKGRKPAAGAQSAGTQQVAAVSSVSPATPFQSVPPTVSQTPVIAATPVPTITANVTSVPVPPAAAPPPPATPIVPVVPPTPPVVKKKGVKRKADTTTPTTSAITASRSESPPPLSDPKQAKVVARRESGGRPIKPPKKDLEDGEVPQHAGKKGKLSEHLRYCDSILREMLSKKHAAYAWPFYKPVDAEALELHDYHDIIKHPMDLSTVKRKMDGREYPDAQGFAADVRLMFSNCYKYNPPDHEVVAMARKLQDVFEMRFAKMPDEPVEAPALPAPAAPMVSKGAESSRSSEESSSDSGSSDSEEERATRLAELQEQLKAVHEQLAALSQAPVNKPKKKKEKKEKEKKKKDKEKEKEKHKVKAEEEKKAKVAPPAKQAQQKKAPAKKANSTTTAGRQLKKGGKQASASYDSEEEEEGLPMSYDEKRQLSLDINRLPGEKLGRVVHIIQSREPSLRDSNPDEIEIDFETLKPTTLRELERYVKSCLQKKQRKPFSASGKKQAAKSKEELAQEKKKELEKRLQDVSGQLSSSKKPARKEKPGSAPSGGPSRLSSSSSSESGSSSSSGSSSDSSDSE", "experiment": "Western blot of BRD3 levels in RS4;11 cells", "assay_type": "cell-based", "procedure": "as §1, §3, §5, §6"}, "BRD4": {"molecular_target": "BRD4 (Homo sapiens, UniProt O60885)", "experiment": "Immunoblot of BRD4 degradation in MB-MDA-231 cells", "assay_type": "cell-based", "parameters": "Immunoblot analysis after treatment of MB-MDA-231 cells with PHOTAC-I-3 for 18 h at different concentrations; endogenous in cells; host or cells: MB-MDA-231 (A10) and MB-MDA-468 (A11) (so in the source)", "settings": "18 h, 390 nm pulses vs dark", "procedure": "FIG. 10 depicts an immunoblot analysis of PHOTAC-I-3 A) Immunoblot analysis after treatment of MB-MDA-231 cells with PHOTAC-I-3 for 18 h at different concentrations. Cells were either irradiated with 100 ms pulses of 390 nm light every 10 s (left) or kept the dark (right). B) Immunoblot analysis after treatment of MB-MDA-468 cells with PHOTAC-I-3 for 18 h at different concentrations. Cells were either irradiated with 100 ms pulses of 390 nm light every 10 s (left) or kept the dark (right). (MWM, molecular weight marker). C) Immunoblot of BRD4 degradation in RS4;11 cells, promoted by PHOTAC-I-3 (300 nM) after 1 minute of irradiation (100 ms every 10 s), highlighting sustained degradation at the applied dosage.\nas §4"}}, "note": "“Also recorded” adds a separate entry of the source."}
{"smiles": "COc1cc(/N=N/c2cccc3c2CN(C2CCC(=O)NC2=O)C3=O)cc(OC)c1OCC(=O)NCCCCNC(=O)C[C@@H]1N=C(c2ccc(Cl)cc2)c2c(sc(C)c2C)-n2c(C)nnc21", "note": "(stereo partly drawn) [PHOTAC-I-3, 2-((S)-4-(4-chlorophenyl)-2,3,9-trimethyl-6H-thieno[3,2-f][1,2,4]triazolo[4,3-a][1,4]diazepin-6-yl)-N-(4-(2-(4-((E)-(2-(2,6-dioxopiperidin-3-yl)-1-oxoisoindolin-4-yl)diazenyl)-2,6-dimethoxyphenoxy)acetamido)butyl)acetamide]", "values": [{"measurement": "BRD2-4 levels with CRL inhibitor MLN4924", "setting": "BRD2-4; 1 μM together with MLN4924 (2.5 μM), 390 nm irradiation", "result": "rescued BRD2-4 levels"}, {"measurement": "BRD levels in the dark, time course", "setting": "BRD2-4; 1 μM, in the dark", "result": "no effect on BRD levels"}, {"measurement": "c-MYC downregulation", "setting": "c-MYC; 390 nm pulse irradiation", "result": "more pronounced when cells were pulse-irradiated; also recorded: c-MYC downregulation over 24 hours"}, {"measurement": "c-MYC levels", "setting": "c-MYC; in the dark", "result": "relatively little effect on c-MYC levels"}, {"measurement": "optimal wavelength to switch to the cis isomer", "setting": "[1]", "result": 390, "unit": "nm"}, {"measurement": "photostationary state (PSS), cis fraction", "setting": "[1]; at 390 nm", "result": "> 90", "unit": "%"}, {"measurement": "photostationary state (PSS), trans fraction", "setting": "[1]; irradiation with wavelengths >450 nm", "result": "> 70", "unit": "%"}, {"measurement": "exposure time after which BRD3 is largely absent", "setting": "BRD3; 1 μM, 390 nm pulse irradiation", "result": 1.5, "unit": "h"}, {"measurement": "BRD3 levels", "setting": "BRD3; 4 h, irradiated with violet light (390 nm)", "result": "significantly reduced"}, {"measurement": "BRD4 degradation", "setting": "BRD4", "result": "light-dependent degradation of BRD4"}]}
